Where “and” joins values, the source holds several entries; their conditions need not be identical. Equal values may be shown once.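 Protocol summary: plate cells (96-well), add compound at 5 concentrations, incubate 48 h, interpolate endpoints linearly. At the GI50, growth is halved. Definition used: TGI = concentration required for complete inhibition of growth.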
Key:
Experiment in all cases: NCI-60 cell line screen, 48 h
[1] = system: 786-0 renal
[2] = system: RPMI-8226 leukemia
[3] = system: MOLT-4 leukemia
[4] = system: K-562 leukemia
[5] = system: SN12C renal
[6] = system: NCI-H460 lung
[7] = system: U251 CNS
[8] = system: HL-60(TB) leukemia
[9] = system: SR leukemia
[10] = system: SK-OV-3 ovarian

Structure (SMILES)	GI50 [1] [nM]	TGI [1] [µM]	GI50 [2]	TGI [2] [µM]	GI50 [3]	TGI [3] [µM]	GI50 [4]	TGI [4] [µM]	GI50 [5]	TGI [5] [µM]	GI50 [6]	TGI [6] [µM]	GI50 [7]	TGI [7] [µM]	GI50 [8] [nM]	TGI [8] [µM]	GI50 [9]	TGI [9] [µM]	GI50 [10] [µM]	TGI [10] [µM]
CCOP(=O)(CCP(=O)(OCC)OCC)OCC.C[CH2][Sn]([Cl])([Cl])[CH2]C	21700	50.2	22700 nM	67.2	39900 nM	> 100	27400 nM	> 100	48100 nM	> 69.8	> 81800 nM	> 100	37900 nM	> 69.3	56600	> 95.2	38200 nM	> 100	99.3	> 100
O=C1NC(=NCc2cccs2)SC1Cc1ccc2ncccc2c1 (stereo not drawn)	> 24100	> 25	16900 nM	> 25	14500 nM	> 25	17300 nM	> 25	> 23600 nM	> 25	11800 nM	> 25	17600 nM	> 25	11800	> 25	8860 nM	> 25	> 25	> 25
COc1c(OC(C)=O)cc2c(OC(C)=O)c1CC(C)CC(OC)C(O)C(C)/C=C(\C)C(OC(N)=O)C(OC)/C=C\C=C(/C)C(=O)N2 (stereo not drawn)		> 100		> 80.9		> 87.4		> 62.6		> 100		> 100		> 100		> 67.5		> 72.6		> 100
OC(c1ccccc1)(c1ccccc1)c1ccccn1		> 100		> 100		> 100		> 100		> 100		> 100		> 100		> 100		> 100		> 100
CCCc1cc(=O)oc2c(C(=O)CC(C)C)c(O)c(CC=C(C)C)c(O)c12	10500	46.2	2860 nM	22.1	11700 nM	> 50	4130 nM	> 50	8840 nM	> 50	8030 nM	> 50	9190 nM	> 50	7010	22.9	16200 nM	> 50	13.5	41.2
COc1ccc2c(=O)c([Se]c3coc4cc(OC)ccc4c3=O)coc2c1		> 100		> 100		> 100		> 100		> 100		> 100		> 100		> 100		> 100		> 100
CSC1=Nc2c(c(C)c(-c3ccccc3)n2COC(CO)CO)C2=NC(=O)C(C)N12 (stereo not drawn)	> 100000	> 100	> 100000 nM	> 100	29600 nM	> 100	> 100000 nM	> 100	> 100000 nM	> 100	> 100000 nM	> 100	> 100000 nM	> 100	3690	> 100	4070 nM	> 100	> 100	> 100
O=C1C2=C(C(=O)c3c(O)ccc(O)c31)N(c1ccc(N3CCOCC3)nc1)Cc1ccccc1O2	206	0.45	265 nM	0.945	87.2 nM		88.9 nM		262 nM	0.848	1310 nM	4.06	603 nM	2.21	170	0.616	108 nM	> 100	2.89	11.8
O=C(N[C@H](c1ccc(Cl)c(Cl)c1)C1CNC1)c1ccc2cnccc2c1	1780	11.5	3900 nM	14.1	1410 nM	5.67	3370 nM	14	2760 nM	15.7	2680 nM	15.4	4620 nM	17.8	2830	12.8	2110 nM	10.8	3.26	13.1
CC/C(=N\Nc1nc2ccccc2n1C)c1ccccn1	211	1.52	33 nM	6.29	< 17.4 nM	7.47	10.2 nM	> 100	128 nM	12.7	114 nM	1.82	86.3 nM	11	25.2	0.319	42.8 nM	12.4	0.064	1.58
C/C(=N/O)C1CC=C(S(=O)(=O)c2ccccc2)C1 (stereo not drawn)		> 100		> 100		> 100		> 100		> 100		> 100		> 100		> 100		> 100		> 100
COc1cc(/C=C/C(=O)C(=Cc2ccc(F)c(F)c2)C(=O)/C=C/c2ccc(O)c(OC)c2)ccc1O	2320	5.5	2440 nM	8.29	2750 nM	> 100	3160 nM	32.8	2650 nM	7.86	2680 nM	6.96	1700 nM	3.51	2670	6.85	2830 nM	9.2	3.45	12.5
Nc1nc(N)c2cc(CNc3ccc(Cl)c(Cl)c3)ccc2n1	391	1.73	1610 nM	3.62	485 nM	2.02	58.8 nM	1.45	732 nM	2.12	60.9 nM	1.32	433 nM	1.66	357	2	445 nM	1.93	1.28	2.53
COc1cc2cc3c4c(cc(OC)c(OC)c4c2cc1OC)CCN3C(=O)CCCC(=O)O		> 100		> 100		> 100		> 100		> 100		> 100		> 100		> 100		> 100		> 100
C=CCN1C(=O)/C(=c2\sc3n(c2=O)C2C(NN=3)N(CC)C(=O)N2CC)c2ccccc21 (stereo not drawn)	708	14.9	657 nM	> 100	1710 nM	> 100	414 nM	> 100	700 nM	> 100	413 nM	> 100	726 nM	> 33.5	315	2.05	380 nM	> 100	1.45	> 23.9
N/C(=N\O)c1ncc(-c2ccc(C(F)(F)F)cc2)c(NC2CCCCCC2)n1	3540	13.1	8660 nM and 2660 nM	9.54	5440 nM and 1900 nM	5.78	4360 nM and 1710 nM	11.8	5790 nM and 3050 nM	14.5	6600 nM and 2600 nM	9.34	4350 nM and 1830 nM	7.51	2060	5.52	4490 nM and 1520 nM	6.68	7.05	20.8
CCCCCCN(CCCCCC)CCCNc1nccc2ccccc12	1810	3.98	1730 nM	4.11	2560 nM	7.71	1950 nM	5.18	2270 nM	7.36	1400 nM	2.88	1540 nM	2.96	1770	4.26	1650 nM	4.6	2.09	5.03
CC1C2Cc3ccc(O)cc3C1(C)CCN2C (stereo not drawn)		> 100		> 100		> 100		> 100		> 100		> 100		> 100		> 100		> 100		> 100
CC(C)(O)[C@@H]1CCC(C)([C@H]2[C@@H](O)CC3(C)C4CC(OC5OC(CO)C(O)C(O)C5O)C5C(C)(C)[C@@H](OC6OCC(O)C(O)C6O)CC[C@@]56C[C@@]46CC[C@]23C)O1 (stereo partly drawn)		> 100		> 100		> 100		> 100		> 100		> 100		> 100		> 100		> 100		> 100
O=C(CCCn1c2c(sc3ncccc32)c(=O)n2nnc(-c3ccccc3)c12)NCCc1cnc[nH]1	12600	25.7	5150 nM	35.7	2220 nM	24.2	310 nM	15.6	331 nM	13.4	3660 nM	13.1	1280 nM	14.9	1410	4.76	2520 nM	6.14	14.3	27.7
O=c1[nH]c(=S)[nH]c2c1sc(=S)n2-c1ccccc1		> 100		> 100		> 100		> 100		> 100		> 100		> 100		> 100		> 100		> 100

— PubChem BioAssay (NCI)
